US9895329B1, “Formyl peptide receptor 1 antagonists and uses thereof” (Chang Gung University, priority 2016, dated 2018)

Tests used:
human neutrophils [1] = experiment: O2•− (superoxide) production in fMLF-activated human neutrophils; assay type: cell-based; conditions: Neutrophil; fMLF (0.1 μM)/CB-activated human neutrophils; read-out: IC50, suppression of superoxide production
Method: (§1) Human neutrophils were obtained in lipopolysaccharide-free conditions by means of dextran sedimentation and Ficoll centrifugation.
O2^•− production was determined based on the SOD-inhibitable reduction of ferricytochrome c. Briefly, neutrophils (6×10^5/mL) were treated with LS-PH at 37° C. at various concentrations (0.03 to 3 μM) for 5 min after being supplementing with 0.5 mg/mL ferricytochrome c and 1 mM Ca^2+. Cells were activated with formyl-L-methionyl-L-leucyl-L-phenylalanine (fMLF, 0.1 μM) for 10 min in the pre-process of cytochalasin B (CB, 1 μg/mL) for 3 min. Changes in absorbance with the reduction of ferricytochrome c at 550 nm were continuously monitored in a double-beam, six-cell positioner spectrophotometer with constant stirring (Hitachi U-3010, Tokyo, Japan). Calculations were based on the differences in the reactions with and without SOD (100 U ml^−1) divided by the extinction coefficient for the reduction of ferricytochrome c (ε=21.1 mM^−1/10 mm).

FPR1 = biological target: T1, FPR1 (Homo sapiens, UniProt P21462); experiment: FPR1 binding assay (FNLFNYK, flow cytometry); conditions: neutrophils, FNLFNYK 4 nM, 4° C.; read-out: IC50, suppression of binding of FPR1-specific ligand FNLFNYK
T1 construct: endogenous in cells; host or cells: neutrophils
T1 sequence (P21462 1-350): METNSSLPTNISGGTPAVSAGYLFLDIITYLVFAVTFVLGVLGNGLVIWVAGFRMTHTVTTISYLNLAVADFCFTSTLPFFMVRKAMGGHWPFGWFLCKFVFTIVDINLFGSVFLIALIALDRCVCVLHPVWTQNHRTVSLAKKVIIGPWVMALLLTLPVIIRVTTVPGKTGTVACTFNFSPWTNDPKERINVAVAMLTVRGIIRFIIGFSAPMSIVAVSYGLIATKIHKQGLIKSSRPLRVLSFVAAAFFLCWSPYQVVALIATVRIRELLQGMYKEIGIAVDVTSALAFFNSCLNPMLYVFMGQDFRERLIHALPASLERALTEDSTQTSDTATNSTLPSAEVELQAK
Method: Neutrophils (2×10^6 cells/ml) were incubated with various concentrations of compound LS-PH (0.03 to 3 μM) or fMLF (10 μM) at 4° C. for 5 min, and labeled with FPR1-specific ligand […] (4 nM) for 30 min. Then, the binding was determined by use of flow cytometry.

human neutrophils [2] = experiment: Intracellular ROS formation in fMLF-activated human neutrophils; assay type: cell-based
Method: as §1
After supplementation with dihydrorhodamine 123 (2 μM), neutrophils (1×10^6/mL) were equilibrated at 37° C. for 12 min and incubated with LS-PH at various concentrations for 5 min. Cells were activated with fMLF (0.1 μM) for 5 min in the pre-process of cytochalasin B (CB, 0.5 μg/mL) for 3 min. Intracellular ROS was determined by use of flow cytometer.

human neutrophils [3] = assay type: cell-based; conditions: 0.03 to 3 μM
Method: Cytotoxicity of LS-PH towards neutrophils was evaluated by measuring the level of lactate dehydrogenase (LDH) using a commercial kit (Promega). LDH is a cytosolic enzyme that is released only when cell membrane is disrupted (i.e., cell death), thus may be used as an indicator of cell viability. The kit measures a color change at (λmax=450 nm) when LDH reduces NAD to NADH. Cytotoxicity was expressed as the percent LDH activity obtained in cell-free medium compared to the total LDH activity. Total LDH activity was determined by lysing cells with 0.1% Triton X-100 for 30 min at 37° C.

human neutrophils [4] = experiment: Elastase release from fMLF-activated human neutrophils; assay type: cell-based; conditions: Neutrophil; fMLF (0.1 μM)/CB-activated human neutrophils; read-out: IC50, suppression of elastase release
Method: as §1
MeO-Suc-Ala-Ala-Pro-Val-p-nitroanilide was employed as the elastase substrate for the determination of elastase release. Briefly, after supplementation with Methoxysuccinyl-Ala-Ala-Pro-Val-p-nitroanilide (Ms-Ala-Ala-Pro-Val-pNA) (100 μM), neutrophils (6×10^5/mL) were equilibrated at 37° C. for 2 min and incubated with LS-PH at various concentrations for 5 min. Cells were activated with fMLF (0.1 μM) for 10 min in the pre-process of cytochalasin B (CB, 0.5 μg/mL) for 3 min, and changes in absorbance at 405 nm were continuously monitored to evaluate elastase release. Results are expressed as the percentage of elastase release in the drug-free control group, DMSO.

For `C=C(C)C1CCC2(C(=O)O)CC[C@]3(C)[C@H](CC[C@@H]4[C@@](C)(CCC(=O)O)[C@H](C(=C)C)CC[C@]43C)C12` (some centres unmarked) [LS-PH, (E) 3,4-Seco-4(23), 20(29)-lupadiene-3,28-dioic acid], the IC50 (human neutrophils [1]) was ~260 nM, the IC50 (FPR1) was ~1720 nM and the “suppression of fMLF-induced intracellular ROS formation” value (human neutrophils [2]) was “suppress fMLF-induced intracellular ROS formation”. The “cytotoxicity (LDH release)” value (human neutrophils [3]) was “did not exhibit detectable cytotoxicity” and the IC50 (human neutrophils [4]) was ~710 nM.
